Test results: patent US9161944B2, “Method for preventing cancer metastasis” (INSERM (INSTITUT NATIONAL DE LA SANTE ET DE LA SANTE ET DE …, priority 2010, dated 2015)

Assays:
[1] = biological target: T1, SK2 (Homo sapiens, UniProt Q9H2S1); assay: Whole-cell K+ currents in HEK293 cells expressing recombinant SK2; format: cell-based; conditions: 10 μM, FIG. 9B
T1 construct: expressed in transfected cells; host or cells: HEK293
Method: (§1) FIG. 9. Selectivity effect of JPH1701 on SKCa subtype and on IKCa channels. FIG. 9A) Example of whole-cell K^+ currents recorded in HEK293 cells expressing recombinants SK1, SK2, SK3 and IKCa channels before and after application of 10 μM JPH1701 (upper graphs: SK1 and SK2 respectively, bottom graphs: SK3 and IKCa respectively). Currents were generated by ramp protocol from −100 mV to +60 mV in 500 ms from a constant holding of 0 mV and with a pCa 6. FIG. 9B) Histograms showing the effect of 10 μM JPH1701 on SKCa (SK1, SK2, SK3) and IKCa current amplitudes recorded at 0 mV. […] For each channel (SK1, SK2, SK3 and IKCa) the left column (pale grey) represents the control result and the right column (dark grey) represents the result after JPH1701 application.
(§2) The selectivity of JPH1701 toward the others members of the SKCa/IKCa channels was tested. […] The experimental protocol was similar to the one used in FIG. 8. JPH1701 was tested for membrane potential from +60 mV to −100 mV on 500 msec.

[2] = biological target: T2, IKCa (Homo sapiens, UniProt O15554); assay: Whole-cell K+ currents in HEK293 cells expressing recombinant IKCa; format: cell-based; conditions: 10 μM, FIG. 9B
T2 construct: expressed in transfected cells; host or cells: HEK293
T2 sequence (O15554 whole entry): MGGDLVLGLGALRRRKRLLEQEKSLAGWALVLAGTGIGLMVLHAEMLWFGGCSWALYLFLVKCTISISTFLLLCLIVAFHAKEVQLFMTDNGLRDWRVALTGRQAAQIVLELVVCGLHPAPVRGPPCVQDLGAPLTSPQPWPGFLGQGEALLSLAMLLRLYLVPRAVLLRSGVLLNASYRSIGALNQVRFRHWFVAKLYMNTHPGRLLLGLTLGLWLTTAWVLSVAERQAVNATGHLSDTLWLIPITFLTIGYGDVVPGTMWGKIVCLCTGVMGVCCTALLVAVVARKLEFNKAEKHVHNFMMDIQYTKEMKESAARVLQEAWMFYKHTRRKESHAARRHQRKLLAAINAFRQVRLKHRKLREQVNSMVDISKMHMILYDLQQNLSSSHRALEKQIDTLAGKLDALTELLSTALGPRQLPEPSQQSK
Method: as §1, §2

[3] = system: MDA-MB-435s cells expressing luciferase; assay: Experimental metastasis model, cells injected into tail vein, BLI; format: in vivo, NMRI nude mice
Method: Female NMRI nude mice, 6 weeks old, were purchased from Janvier laboratories. Mice were bred and housed at INSERM, U892, University of Nantes, under the animal care license no 44565.
MDA-MB-435s were incubated with 1 μM JPH1701 or with 2% DMSO/3% ethanol (vehicle) during 24 h and injected (0.75 106) in iv into the lateral tail vein. Next, mice were treated three times a week for 12 weeks with JPH1701 at 15 mg/kg in i.v. or with vehicle.
All of the mice were assessed weekly using whole-body bioluminescent imaging to quantify relative amounts of metastasis burden (ΦImageur™; BIOSPACE Lab, France). Each mouse was given potassium salt of D-luciferin (Interchim) at dose of 150 mg/kg body weight by intraperitoneal injection and anesthetized with Ketamin/xylasin i.p. injection. […] Regions of interest were drawn around the experimental metastases. The amount of metastasis burden within each region of interest was quantified as the relative amount of light produced from the luciferase activity in breast cancer cells and expressed in cpm using the Photovision+ software (version 1.3; Biospace Lab). At necropsy, ex vivo BLI measurement were performed for each tissues collected.
To determine whether a SK3/KCa2.3 blocker such as JPH1701 could prevent metastasis development, we used a model of experimental metastasis with MDA-MB-435s cells expressing the firefly luciferase gene. Cancer cells were injected directly to the systemic circulation into the vein tail. One cohort of mice was treated with JPH1701 three times a week for 12 weeks by i.v. administration. Another cohort was treated with the vehicle in the same conditions. At the end of treatment, metastases were visualized in vivo by bioluminescence imaging (BLI) in 70% (7/10) of control mice and only in 40% (4/10) of JPH1701 treated-mice (Table 4). To go further, mice were sacrificed and detection of metastases in different tissues was performed ex vivo by BLI. The number of positive tissues from each cohort was show in Table 4. Metastatic lesions were detected in all vehicle-treated mice.

[4] = system: MDA-MB-435s (SK3+); assay: Cell migration / 2D motility assay (transwell inserts, wound healing); format: cell-based, human
Description: Alternatively, the cell migration inhibitory activity of a compound of formula (I) may be assessed by performing a Wound Healing assay that is disclosed in the examples herein and for which the one skilled in the art may also refer to the article of Rodriguez et al. (2005, Methods Biol Mol, Vol. 294: 23-29). The wound-healing assay is simple, inexpensive, and one of the earliest developed methods to study directional cell migration in vitro. This method mimics cell migration during wound healing in vivo. The basic steps involve creating a “wound” in a cell monolayer, capturing the images at the beginning and at regular intervals during cell migration to close the wound, and comparing the images to quantify the migration rate of the cells. It is particularly suitable for studies on the effects of cell-matrix and cell-cell interactions on cell migration. Cells are seeded in culture dishes and grown until confluence in DMEM supplemented with 10% foetal calf serum. The monolayer is then scratched with a sterile yellow pipette tip. Then, migration of cells to the cleared area is inspected under a microscope. Pictures are taken directly at the time of scratching and after 24 h, so as to determine the ability of the tested cells to migrate.
Wound healing assay: Cells were seeded in culture dishes and grown until confluence in DMEM supplemented with 10% foetal calf serum. The monolayer was scratched with a sterile yellow pipette tip. The migration of cells to the cleared area was inspected under a microscope. Pictures were taken directly at the time of scratching and after 24 h.
At least three independent experiments were each performed in triplicate.

[5] = system: PKCs; assay: PKCs activity (alpha, Beta 1, Beta 2, Gamma, Delta, Epsilon, Zeta, Eta, Theta, Iota); format: biochemical; conditions: ten PKCs, FIG. 11C
Method: FIG. 11: Effects of JPH1701 on PAF receptor, PLC and PKCs activities. FIG. 11A) Histogram showing the percentage of control specific binding of 3H-C16-PAF to recombinant PAF receptor obtained from membrane homogenates of CHO cells by 0.3 and 2 μM edelfosine and by 0.3 and 2 μM JPH1701. FIG. 11B) Histogram showing the percentage of control agonist response (% effect i.e: increase of intracellular calcium concentration) of 0.3 and 2 μM edelfosine and JPH1701 on PAF receptor normalized to the response induced by 100 nM C16-PAF. […] FIG. 11C-D) Dose responses curves showing the effect of JPH1701 on PKCs (FIG. 11C, PKCs are: alpha, Beta 1, Beta 2, Gamma, Delta, Epsilon, Zeta, Eta, Theta, Iota) and PhosphoLipase C (PLC) activities (FIG. 11D).

[6] = 15 mg/kg i.v. three times a week, 12 weeks, N = 10
[7] = 15 mg/kg i.v., 12 weeks, N = 10

T1 sequence (Q9H2S1 whole entry): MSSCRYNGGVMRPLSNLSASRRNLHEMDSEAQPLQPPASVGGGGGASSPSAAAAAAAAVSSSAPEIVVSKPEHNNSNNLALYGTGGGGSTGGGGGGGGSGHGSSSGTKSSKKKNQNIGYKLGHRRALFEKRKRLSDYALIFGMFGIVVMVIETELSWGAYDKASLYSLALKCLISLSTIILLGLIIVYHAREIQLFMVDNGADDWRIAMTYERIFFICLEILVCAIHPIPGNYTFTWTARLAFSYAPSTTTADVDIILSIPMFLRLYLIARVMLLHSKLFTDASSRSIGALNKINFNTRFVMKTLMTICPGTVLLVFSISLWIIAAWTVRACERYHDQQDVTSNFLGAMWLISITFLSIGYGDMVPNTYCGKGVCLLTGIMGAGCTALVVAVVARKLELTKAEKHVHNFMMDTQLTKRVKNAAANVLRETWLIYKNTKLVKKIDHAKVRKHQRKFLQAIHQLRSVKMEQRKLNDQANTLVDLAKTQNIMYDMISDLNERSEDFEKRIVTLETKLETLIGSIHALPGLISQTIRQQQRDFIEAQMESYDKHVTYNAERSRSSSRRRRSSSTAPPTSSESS

hexadecyloxy-2-O-methyl-sn-glycerol-lactose [JPH1701]
Effect on SK2 channels [1]: inactive | Effect on IKCa currents [2]: inactive | Adverse effects in mice ([3]; 15 mg/kg i.v. three times a week for 12 weeks): No adverse effects | Number of mice with experimental metastases detected ex vivo by BLI [3, 6]: 7 | Number of mice with experimental metastases detected in vivo by BLI [3, 6]: 4 | Mice with no sign of metastasis development ex vivo ([3]; 15 mg/kg i.v., 12 weeks): 30% | Number of tissues with metastases detected by BLI: column [3, 7]: 2 | Number of tissues with metastases detected by BLI: kidney [3, 7]: 0 | Number of tissues with metastases detected by BLI: leg [3, 7]: 3 | Number of tissues with metastases detected by BLI: liver [3, 7]: 0 | Number of tissues with metastases detected by BLI: lung [3, 7]: 5 | Number of tissues with metastases detected by BLI: lymph node [3, 7]: 1 | Number of tissues with metastases detected by BLI: ovary/uterus [3, 7]: 0 | Number of tissues with metastases detected by BLI: spleen [3, 7]: 0 | Mice with metastases visualized in vivo by BLI at the end of treatment ([3]; 15 mg/kg i.v., 12 weeks, control 70%): 40% | Metastatic profile ([3]; FIGS. 10A-D): shifted the metastatic profile toward a less one | Additional wait until 75% of mice present detectable metastases (vehicle: week 4) ([3]; mice with metastases in vivo on week 12): 3 weeks | Metastasis appearance, times faster in control group than in treated group ([3]; mice with metastases in vivo on week 12, FIG. 10E): roughly 3 times | Effect on motility of cells with shRNA random (SK3+) compared with wild type ([4]; MDA-MB-435s shRD, FIG. 6E): same inhibition effect | Concentration from which cell migration is inhibited ([4]; MDA-MB-435s wild type, FIG. 6A): ≥ 10 nM | Concentration of maximal effect on cell migration ([4]; MDA-MB-435s wild type, FIG. 6A): around 1 μM | Cell Migration inhibition of MDA-MB-435s (SK3+), Inhibitory effect ([4]; Table 1, concentration 300 nM): 50% | Migration (% of inhibition) ([4]; Table 2, concentration 300 nM): 50% | Effect on cell migration ([4]; summary of table 2): even more effective | Effect on PKC activity [5]: did not affect
